Source: patent publication US20080194646A1, “Methods For Avoiding Edema in the Treatment of Metabolic, Inflammatory, and Cardiovascular Disorders” (priority 2005, published 2008)

Key:
[1] = biological target: T1, PPARγ (Homo sapiens, UniProt P37231); assay: PPARγ partial agonism (Example 8, FIG. 6); format: cell-based
T1 sequence (P37231 1-505): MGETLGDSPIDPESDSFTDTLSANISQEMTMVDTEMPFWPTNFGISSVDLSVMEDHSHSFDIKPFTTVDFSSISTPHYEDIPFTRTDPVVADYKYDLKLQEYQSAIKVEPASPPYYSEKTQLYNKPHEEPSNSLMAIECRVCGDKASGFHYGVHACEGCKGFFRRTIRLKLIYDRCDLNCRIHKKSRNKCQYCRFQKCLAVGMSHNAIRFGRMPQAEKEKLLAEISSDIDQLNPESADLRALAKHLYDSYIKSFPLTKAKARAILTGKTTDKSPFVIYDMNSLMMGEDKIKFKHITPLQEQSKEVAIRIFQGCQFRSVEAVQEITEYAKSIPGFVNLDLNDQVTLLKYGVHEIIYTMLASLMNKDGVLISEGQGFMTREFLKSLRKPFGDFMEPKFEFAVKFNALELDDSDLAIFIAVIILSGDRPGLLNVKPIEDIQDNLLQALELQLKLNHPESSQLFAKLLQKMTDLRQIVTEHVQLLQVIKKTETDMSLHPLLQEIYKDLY

[2] = system: human subjects also receiving glyburide; assay: 14 days of treatment in human subjects also receiving glyburide; format: in vivo
From the text: The data for pioglitazone (Actos) is taken from Goldberg R B et al., Diabetes Care 28(7):1547-54 (2005), which is incorporated herein by reference.

[3] = system: type 2 diabetics with inadequate control on insulin; assay: two randomized, double-blind, placebo-controlled studies on type 2 diabetics with inadequate control on insulin; format: in vivo, human
From the text: Example 9 presents the results of two randomized, double-blind, placebo-controlled, multi-centre studies on type 2 diabetics with inadequate control on insulin. […] Both studies were about 4 months long, with a stabilization/run in period for 2 to 4 weeks and a 3 month treatment period. Endpoints included fasting plasma glucose (FPG), HbA1c, weight, and the incidence of edema.

[4] = system: monkeys; assay: separate animal studies, heart weight and fluid accumulation (monkeys); format: in vivo; details: therapeutically relevant doses, data not shown
[5] = system: rats; assay: separate animal studies, heart weight and fluid accumulation (rats); format: in vivo; details: therapeutically relevant doses, data not shown
[6] = plasma hydrolysis of prodrug esters of (−) CPTA; format: in vitro ADME; details: human plasma (heparinized, pooled), 37° C., 125 or 250 μM prodrug; read-out: Plasma T1/2
Protocol: This example illustrates the plasma hydrolysis of various prodrug esters of the (S)-enantiomer of CPTA at physiological conditions. Hydrolysis was monitored and analyzed by HPLC. The hydrolytic product was identified by comparison to authentic (−) CPTA and the hydrolytic rates were calculated.
Human plasma (heparinized, pooled) was obtained from Golden West Biololgicals Inc., USA; Plasma incubation was carried out in a Water Bath Shaker (New Brunswick Scientific, Inc.); Sample analyses were carried out on Agilent HPLC 1100 system.
Prepare 31.25 or 62.5 mM prodrug stock solutions in 100% DMSO. Add 4 μL of 31.25 or 62.5 mM prodrug stock solutions to 1.0 mL of plasma in a microcentrifuge tube to make plasma concentration at 125 or 250 μM, mix gently. Aliquots of 50 μL are transferred to 15 microcentrifuge vials. Three samples are immediately removed to a freezer at about −80° C. (0 time point), the remaining samples are incubated in a bath shaker at 37° C. Three samples are removed at 30 min, 2, 7 and 24 hr, and stored at −80° C. until analysis. The relative concentrations of MBX-compounds are determined by HPLC methods. If there are enough data points, the hydrolytic rate can be calculated using WinNonlin software. Table 10 provides a summary of plasma half-lives of some pro-drug esters and FIGS. 20A-20G illustrate the hydrolytic curves of those prodrug esters. […]

## CC(=O)NCCOC(=O)C(Oc1cccc(C(F)(F)F)c1)c1ccc(Cl)cc1 (single isomer, unassigned; (-)) [(−) halofenate, (−) 2-acetamidoethyl 4-chlorophenyl-(3-trifluoromethylphenoxy)acetate]
[1]
  ability to induce PPARγ expression: a few fold
  antagonism of the agonist activity of rosiglitazone: significantly antagonizing the agonist activity of rosiglitazone
[2]; human patients, 14 days of treatment, dose dependent (FIG. 20)
  hsCRP levels: lower hsCRP levels
[2]; patients also receiving glyburide, 14 days of treatment (FIG. 19)
  blood glucose levels: substantially lower blood glucose levels
[3]; additional analyses, data not shown
  adverse effects on selected parameters: upper GI tract, liver, blood, kidney: not associated with an excess of adverse effects
[3]; additional results, data not shown
  serum triglycerides: lowered serum triglycerides substantially
[3]; both studies, dose range 200- to 600 mg (FIG. 17)
  incidence of edema formation compared to combined placebo groups: did not increase the incidence of edema formation
[3]; first study, 200 mg group
  Discontinued due to AE: 3 (4.1%)
[3]; first study, 400 mg group
  Discontinued due to AE: 3 (4.3%)
[3]; first study, 200- and 400 mg (FIG. 8)
  plasma glucose levels as judged by HbA1c compared to placebo: lowered plasma glucose levels as judged by HbA1c levels
[3]; first study, 200- and 400 mg (FIG. 9)
  edema formation compared to placebo: prevented edema formation
[3]; first study, 200- and 400 mg (FIG. 10)
  weight gain compared to placebo: did not induce weight gain
[3]; first study, 200- and 400 mg, 3 month treatment (FIG. 7)
  fasting plasma glucose levels compared to placebo: lowered fasting plasma glucose levels
[3]; first study, 200- and 400 mg, sites 60 and 70 removed (FIG. 15)
  plasma glucose levels as judged by HbA1c compared to placebo: lowered plasma glucose levels as judged by HbA1c levels
[3]; first study, 200- and 400 mg, sites 60 and 70 removed (FIG. 16)
  fasting plasma glucose levels compared to placebo: lowered fasting plasma glucose levels
[3]; second study, 600 mg (FIG. 11)
  fasting plasma glucose levels compared to placebo: lowered fasting plasma glucose levels
[3]; second study, 600 mg (FIG. 18)
  weight gain compared to placebo: did not induce weight gain
[3]; second study, 600 mg, all sites, placebo group demonstrated a comparable response (FIG. 12)
  plasma glucose levels as judged by HbA1c: lowered plasma glucose levels as judged by HbA1c levels in the experimental group substantially from baseline
[3]; second study, 600 mg, sites 60 and 70 removed (FIG. 13)
  plasma glucose levels as judged by HbA1c compared to placebo: lowered plasma glucose levels as judged by HbA1c levels
[3]; second study, 600 mg, sites 60 and 70 removed (FIG. 14)
  fasting plasma glucose levels compared to placebo: lowered fasting plasma glucose levels
[4]
  heart weight or fluid accumulation: did not cause increases at therapeutically relevant doses in heart weight or fluid accumulation
[5]
  heart weight or fluid accumulation: did not cause increases at therapeutically relevant doses in heart weight or fluid accumulation

## C=C/C=C(\C=C)C(=O)NCCOC(=O)C(Oc1cccc(C(F)(F)F)c1)c1ccc(Cl)cc1 (centres unmarked) [Compound 19.4]
[6]
  half-life: < 1 h
